Source: the NIST ThermoML archive (doi:10.1021/je2013704)

Assay: mn = molality of the nth substance listed, in mol/kg
Settings: Liquid, Vibrating tube method

[Cl-].[Na+] [sodium chloride] + O
mass density [kg/m3]
Settings | 298.12 K | 323.07 K | 348.04 K | 372.99 K | 397.97 K | 422.94 K | 447.94 K | 472.96 K
900 kPa, m1 = 1.06 | 1038.78 | 1028.45 | 1014.93 | 998.89 | 980.42 | 959.71 | 936.49 | –
900 kPa, m1 = 3.16 | 1111.08 | 1098.8 | 1084.57 | 1068.6 | 1051.16 | 1031.93 | 1010.87 | –
900 kPa, m1 = 6 | 1194.53 | 1180.58 | 1165.53 | 1149.58 | 1132.48 | 1114.2 | 1094.62 | –
9900 kPa, m1 = 1.06 | 1042.49 | 1032.1 | 1018.61 | 1002.77 | 984.6 | 964.31 | 941.64 | 916.86
9900 kPa, m1 = 3.16 | 1114.33 | 1102.1 | 1087.94 | 1072.14 | 1054.84 | 1036.08 | 1015.28 | 993.19
9900 kPa, m1 = 6 | 1197.36 | 1183.46 | 1168.53 | 1152.7 | 1135.74 | 1117.84 | 1098.38 | 1078.2
19900 kPa, m1 = 1.06 | 1046.61 | 1036.09 | 1022.67 | 1007 | 989.13 | 969.29 | 947.14 | 923.12
19900 kPa, m1 = 3.16 | 1117.89 | 1105.63 | 1091.54 | 1075.95 | 1058.92 | – | – | 998.47
19900 kPa, m1 = 6 | 1200.44 | 1186.57 | 1171.76 | 1156.09 | 1139.35 | 1121.56 | 1102.62 | 1082.67
29900 kPa, m1 = 1.06 | 1050.58 | – | 1026.61 | 1011.16 | 993.51 | 974.04 | 952.41 | 929
29900 kPa, m1 = 3.16 | 1121.4 | 1109.07 | 1095.09 | 1079.61 | 1062.79 | 1044.51 | 1024.61 | 1003.47
29900 kPa, m1 = 6 | 1203.47 | 1189.69 | 1174.98 | 1159.48 | 1142.8 | 1125.33 | 1106.53 | 1087.01
39900 kPa, m1 = 1.06 | 1054.45 | 1043.77 | 1030.49 | 1015.15 | 997.76 | 978.6 | 957.55 | 934.76
39900 kPa, m1 = 3.16 | 1124.91 | 1112.54 | 1098.65 | 1083.24 | 1066.63 | 1048.68 | 1029.15 | 1008.45
39900 kPa, m1 = 6 | 1206.51 | 1192.73 | 1178.07 | 1162.74 | 1146.27 | 1128.98 | 1110.46 | 1091.28
49900 kPa, m1 = 1.06 | 1058.27 | 1047.49 | 1034.25 | 1019.09 | 1002.02 | 983.2 | 962.42 | 940.22
49900 kPa, m1 = 3.16 | 1128.21 | 1115.9 | 1101.95 | 1086.77 | 1070.44 | 1052.68 | – | 1013.17
49900 kPa, m1 = 6 | 1209.49 | 1195.77 | 1181.15 | 1165.95 | 1149.66 | 1132.56 | 1114.27 | 1095.39
59900 kPa, m1 = 1.06 | 1061.93 | 1051.1 | 1037.94 | 1022.88 | 1006.01 | 987.46 | 967.35 | 945.52
59900 kPa, m1 = 3.16 | 1131.46 | 1119.2 | 1105.34 | 1090.25 | 1074.07 | 1056.58 | 1037.71 | 1017.78
59900 kPa, m1 = 6 | 1212.31 | 1198.7 | 1184.21 | 1169 | 1152.86 | 1136.03 | 1118.04 | 1099.39
68400 kPa, m1 = 1.06 | 1065.11 | 1054.12 | 1041.08 | 1026.09 | 1009.32 | 991.15 | 971.22 | 949.91
68400 kPa, m1 = 3.16 | 1134.29 | 1121.87 | 1108.22 | 1093.16 | 1077.08 | 1059.82 | 1041.14 | 1021.53
68400 kPa, m1 = 6 | 1214.78 | 1201.09 | 1186.78 | 1171.6 | 1155.61 | 1138.92 | 1121.1 | 1102.68

[Cl][Al]([Cl])[Cl] [aluminum chloride] + O
mass density [kg/m3]
Settings | 900 kPa | 9900 kPa | 19900 kPa | 29900 kPa | 39900 kPa | 49900 kPa | 59900 kPa | 68400 kPa
298.12 K, m1 = 1 | 1105.53 | 1108.79 | 1112.3 | 1115.82 | 1119.28 | 1122.69 | 1125.95 | 1128.83
298.12 K, m1 = 2 | 1212.19 | 1214.96 | 1217.92 | 1220.94 | 1223.85 | 1226.72 | 1229.57 | 1232.02
323.07 K, m1 = 1 | 1096.76 | 1099.96 | 1103.44 | 1106.84 | 1110.31 | 1113.67 | 1116.93 | 1119.6
323.07 K, m1 = 2 | 1203.26 | 1206.02 | 1209.01 | 1211.9 | 1214.88 | 1217.8 | 1220.6 | 1222.88
348.04 K, m1 = 1 | 1085.66 | 1088.98 | 1092.48 | 1096.02 | 1099.44 | 1102.74 | 1106.07 | 1108.86
348.04 K, m1 = 2 | 1192.82 | 1196 | 1199.11 | 1202.1 | 1205.07 | 1207.92 | 1210.85 | 1213.26
372.99 K, m1 = 1 | 1072.64 | 1075.97 | 1079.63 | 1083.19 | 1086.72 | 1090.2 | 1093.58 | 1096.34
372.99 K, m1 = 2 | 1181.64 | 1184.73 | 1187.9 | 1191.11 | 1194.19 | 1197.22 | 1200.14 | 1202.66
